Reference: patent US20240287089A1, “Preparation and Uses of 7-Azaindenoisoquinolines” (Purdue Research Foundation, priority 0001, published 2024)
pIC50, pKd: −log10 of the molar value. Where two headings read alike, the source gives them in different places.

Tests used:
[1] = test system: RAJI lymphoma cells; assay: MTS cell viability IC50 assay; format: cell-based; conditions: 72 h
Experimental: Cytotoxicity Results in Raji Non-Hodgkin's Lymphoma Cells. MTS experiments were then conducted to test the anti-proliferative effects of 7-aza-8,9-methylenedioxyindenoisoquinolines in Raji cells. Cells were incubated at 2-2000 nM of each drug for 72 h, and cell viabilities were quantified using the MTS assay. […] This potency trend generally correlated with the western blot results, in which G106 and G108 […] show weaker Myc downregulation.
(§1) MTS Cell Viability IC50 Assay. Drug solutions for MTS IC50 assays of suspension cell lines were made from DMSO stocks by serial-dilutions in 1×PBS (10010-031, Gibco). To set up treatments, drug solutions were plated in triplicates to 96-well tissue culture plates, to which cell-containing media was added to a total volume of 100 μL/well. 100%-viability controls were untreated cells. 2000 cells/well were plated for all suspension cell lines except 3000 cells/well for KMS-27 and 10000 cells/well for CHLA-32. Blanks were cell-free media. Drug treatments were maintained for 72 hr at 37° C. with 5% CO2. To quantify cells, CellTiter 96 AQueous MTS Reagent Powder (G1111, Promega) was dissolved and mixed with phenazine methosulfate (PMS, Sigma-Aldrich P9625) according to manufacturer's instructions. MTS/PMS mix ([…]) was added to treatment wells, 100%-viability control wells, and blank wells. Colors were developed at 37° C. with 5% CO2 for 4 h and absorbance at 490 nm was measured by BioTek Synergy 4 system. To obtain %-viability, A490 values were corrected by blank subtraction, normalized to 100%-viability control, and averaged. Average %-viabilities were plotted against drug dosages to obtain dose-response curves. […] For adherent cell lines, the MTS IC50 assays were conducted the same way as for suspension cell lines except for cell plating and drug treatment. For cell plating, 50 μL of 2000 cells were plated in triplicates to a 96-well tissue culture plate. Cells were allowed sufficient time to become adherent. Serial-diluted drug solutions were made the same way as in the MTS IC50 assays. To set up treatments, drug solutions were mixed with media to two-fold of the final concentrations, and 50 μL of such drug-media mix was then added to 50 μL of plated cells.

[2] = test system: ARD; assay: MTS GI50, Myc-dependent panel; format: cell-based; conditions: ARD, 72 h; read-out: GI50
Experimental: (§2) Cytotoxicity Results in Myc-dependent Cancer Cell Lines.
as §1

[3] = test system: THP-1; assay: MTS GI50, Myc-dependent panel; format: cell-based; conditions: THP-1, 72 h, read-out: GI50
Experimental: as §2, §1

[4] = test system: HL-60; assay: MTS GI50, Myc-dependent panel; format: cell-based; conditions: HL-60, 72 h, read-out: GI50
Experimental: as §2, §1

[5] = test system: TC-32; assay: MTS GI50, Myc-dependent panel; format: cell-based; conditions: TC-32, 72 h, read-out: GI50
Experimental: as §2, §1

[6] = test system: L-363; assay: MTS GI50, Myc-dependent panel; format: cell-based; conditions: L-363, 72 h, read-out: GI50
Experimental: as §2, §1

[7] = test system: RD-ES; assay: MTS GI50, Myc-dependent panel; format: cell-based; conditions: 72 h, read-out: GI50
Experimental: as §2, §1

[8] = test system: CHLA-99; assay: MTS GI50, Myc-dependent panel; format: cell-based; conditions: CHLA-99, 72 h; read-out: GI50
Experimental: as §2, §1

[9] = test system: KMS-27; assay: MTS GI50, Myc-dependent panel; format: cell-based; conditions: KMS-27, 72 h; read-out: GI50
Experimental: as §2, §1

[10] = test system: TC-71; assay: MTS GI50, Myc-dependent panel; format: cell-based; conditions: TC-71, 72 h; read-out: GI50
Experimental: as §2, §1

[11] = test system: SK-N-MC; assay: MTS GI50, Myc-dependent panel; format: cell-based; conditions: 72 h, read-out: GI50
Experimental: as §2, §1

[12] = test system: RS4;11; assay: MTS GI50, Myc-dependent panel; format: cell-based; conditions: RS4;11, 72 h, read-out: GI50
Experimental: as §2, §1

[13] = test system: CCRF-CRM; assay: MTS GI50, Myc-dependent panel; format: cell-based; conditions: CCRF-CRM, 72 h; read-out: GI50
Experimental: as §2, §1

[14] = test system: MDA-MB-231; assay: MTS GI50, Myc-dependent panel; format: cell-based; conditions: MDA-MB-231, 72 h, read-out: GI50
Experimental: as §2, §1

[15] = test system: TC-106; assay: MTS GI50, Myc-dependent panel; format: cell-based; conditions: TC-106, 72 h; read-out: GI50
Experimental: as §2, §1

[16] = test system: RPMI-8226; assay: MTS GI50, Myc-dependent panel; format: cell-based; conditions: RPMI-8226, 72 h, read-out: GI50
Experimental: as §2, §1

[17] = test system: CHLA-32; assay: MTS GI50, Myc-dependent panel; format: cell-based; conditions: CHLA-32, 72 h; read-out: GI50
Experimental: as §2, §1

[18] = test system: MCF-7; assay: MTS GI50, Myc-dependent panel; format: cell-based; conditions: MCF-7, 72 h, read-out: GI50
Experimental: as §2, §1

[19] = test system: K-562; assay: MTS GI50, Myc-dependent panel; format: cell-based; conditions: K-562, 72 h, read-out: GI50
Experimental: as §2, §1

[20] = test system: Kasumi-1; assay: MTS GI50, Myc-dependent panel; format: cell-based; conditions: Kasumi-1, 72 h, read-out: GI50
Experimental: as §2, §1

[21] = test system: MOLT-4; assay: MTS GI50, Myc-dependent panel; format: cell-based; conditions: MOLT-4, 72 h, read-out: GI50
Experimental: as §2, §1

[22] = test system: AMO-1; assay: MTS GI50, Myc-dependent panel; format: cell-based; conditions: AMO-1, 72 h, read-out: GI50
Experimental: as §2, §1

[23] = target: 3′-TAMRA-labeled MycG4 DNA; assay: Fluorescence binding assay; conditions: 20° C., 100 mM K+ buffer, pH 7.0; read-out: Apparent Binding Affinity Kd, app
Experimental: Binding Affinity to the Myc G-Quadruplex. Binding affinity of eight 7-aza-8,9-methylenedioxyindenoisoquinolines to MycG4 was determined using a fluorescence binding assay with a 3′-TAMRA-labeled MycG4 DNA. Monitoring TAMRA emission upon drug titration afforded binding isotherms, from which apparent binding affinities, Kd,app, were derived.
Fluorescence-Based Binding Assays. Fluorescence-based binding assays were performed on a Jasco FP-8300 spectrofluorometer equipped with a temperature controller at 20° C. in a quartz cuvette with a 10 mm path length. 3′-TAMRA-labeled MycG4 DNA (Sigma-Aldrich) was diluted to 20 nM using a 75 mM KCl/25 mM potassium phosphate buffer, pH 7.0. […] Fluorescence intensity at 580 nm, the maximum for the free DNA, was plotted against drug:DNA ratio. The apparent binding dissociation constant, Kd,app, was derived for the binding of each compound. Using OriginPro software (OriginLab Corp., United States) the change in fluorescence intensity was fitted to a one-site binding equation,
where B0 is the initial fluorescence intensity, B is maximum change in fluorescence intensity, R is DNA concentration, and L is drug:DNA ratio.

[24] = human, 1 μM
Experimental: Analysis of Plasma Protein Binding and Stability in Human and Mouse Blood Plasma by Equilibrium Dialysis. Frozen plasma (stored at −80° C.) was thawed immediately in a 37° C. water bath. The working solutions of test compound and control compound were prepared in DMSO at 200 μM concentration, and the working solutions were spiked into plasma. The final concentration of compound was 1 μM. The final concentration of DMSO was 0.5%. Ketoconazole was used as positive control in the assay. The dialysis membranes were soaked in ultrapure water for 60 min to separate strips, then in 20% ethanol for 20 min, and then finally in dialysis buffer for 20 min. For equilibrium dialysis, each cell contained plasma sample (150 μL) and was dialyzed against an equal volume of dialysis buffer (PBS). The assay was performed in duplicate. The dialysis plate was sealed and incubated at 37° C. with 5% CO2 at 100 rpm for 6 h. At the end of incubation, samples (50 μL) from both buffer and plasma chambers were transferred to wells of a 96-well plate. Plasma (50 μL) was added to each buffer sample and an equal volume of PBS was added to the collected plasma sample. Cold acetonitrile (400 μL) containing internal standards (IS, 100 nM alprazolam, 200 nM labetalol, 200 nM imipramine and 2 μM ketoprofen) was added to precipitate protein and release compounds. Samples were vortexed for 2 min and centrifuged for 30 min at 3,220 g. An aliquot (100 μL) of the supernatant was diluted with ultra-pure H2O (100 μL), and the mixture was used for LC-MS/MS analysis. For stability determination in plasma, a spiked plasma sample (50 μL) was transferred to a new plate and incubated at 37° C., 5% CO2 for 0 and 6 h. At designated time points, PBS (50 μL) was added and mixed thoroughly, followed by the addition of room temperature quench solution [400 μL of acetonitrile containing internal standards (IS, 100 nM alprazolam, 200 nM labetalol, 200 nM imipramine and 2 μM ketoprofen)] to precipitate protein and release compounds. Samples were vortexed for 2 min and centrifuged for 30 min at 3,220 g. An aliquot (400 μL) of the supernatant was diluted by ultra-pure H2O, and the mixture was used for LC-MS/MS analysis. The concentrations of test compounds in the buffer and plasma chambers were determined from peak area ratios.

SMILES | GI50 [2] [nM] | GI50 [7] [nM] | GI50 [8] [nM] | GI50 [9] [nM] | GI50 [10] [nM] | GI50 [13] [nM] | GI50 [15] [nM] | GI50 [17] [nM] | pKd [23] | pIC50 ([1]; Homo sapiens, Raji) | GI50 ([3]; Homo sapiens) [nM] | GI50 ([4]; Homo sapiens) [nM] | GI50 ([5]; Homo sapiens) [nM] | GI50 ([6]; Homo sapiens) [nM] | GI50 ([11]; Homo sapiens) [nM] | GI50 ([12]; Homo sapiens) [nM] | GI50 ([14]; Homo sapiens) [nM] | GI50 ([16]; Homo sapiens) [nM] | GI50 ([18]; Homo sapiens, MCF7) [nM] | GI50 ([19]; Homo sapiens, K562) [nM] | further results
COc1cc2c3c(n(CCCNCCO)c(=O)c2cc1OC)-c1cc2c(cc1C3=O)OCO2 [LMP744] | 77 | 24 | 77 | 190 | 244 | 57 | 277 | 156 | 7.96 |  |  |  |  |  |  |  |  |  |  |  | pIC50 ([1]; RAJI): 6.92; GI50 [3]: 305 nM; GI50 [4]: 354 nM; GI50 [5]: 121 nM; GI50 [6]: 119 nM; GI50 [11]: 237 nM; GI50 [12]: 30 nM; GI50 [14]: 968 nM; GI50 [16]: 620 nM; GI50 [18]: > 2000 nM; GI50 [19]: 219 nM; GI50 [20]: 721 nM; GI50 [21]: 4 nM; GI50 [22]: 285 nM
COc1cc2c3c(n(CCCn4ccnc4)c(=O)c2cc1OC)-c1nc2c(cc1C3=O)OCO2 [G102, 6-(3-(1H-Imidazol-1-yl)propyl)-2,3-dimethoxy-5H-[1,3]dioxolo[4″,5″:5′,6′]pyrido[3′,2′:4,5]cyclopenta[1,2-c]isoquinoline-5,12(6H)-dione] | 111 | 180 | 265 | 238 | 199 | 117 | 229 | 280 | 6.83 | 6.82 | 1020 | > 2000 | 127 | 232 | 170 | 120 | 1050 | 481 | > 2000 | 580 | GI50 ([20]; Homo sapiens): > 2000 nM; GI50 ([21]; Homo sapiens): 43 nM; GI50 ([22]; Homo sapiens, AMO1): 804 nM
COc1cc2c3c(n(CCCN4CCOCC4)c(=O)c2cc1OC)-c1nc2c(cc1C3=O)OCO2 [G101, 2,3-Dimethoxy-6-(3-morpholinopropyl)-5H-[1,3]dioxolo[4″,5″:5′,6′]pyrido[3′,2′:4,5]cyclopenta[1,2-c]isoquinoline-5,12(6H)-dione] | 190 | 608 | 526 | 530 | 756 | 248 | 848 | 708 | 6.60 | 6.47 | 1320 | > 2000 | 569 | 342 | 698 | 283 | > 2000 | 905 | > 2000 | 1010 | GI50 ([20]; Homo sapiens): > 2000 nM; GI50 ([21]; Homo sapiens): 113 nM; GI50 ([22]; Homo sapiens, AMO1): 1220 nM
COc1cc2c3c(n(CCCN4CCOCC4)c(=O)c2cc1OC)-c1cc2c(cc1C3=O)OCO2 [LMP400, indotecan] | 126 | 472 | 773 | 543 | 1060 | 316 | 605 | 812 | 6.52 | 6.72 | 915 | 1390 | 574 | 214 | 1050 | 336 | 1900 | 989 | > 2000 | 864 | GI50 ([20]; Homo sapiens): > 2000 nM; GI50 ([21]; Homo sapiens): 239 nM; GI50 ([22]; Homo sapiens, AMO1): 738 nM
COc1cc2c3c(n(CCCNC(C)C)c(=O)c2cc1OC)-c1nc2c(cc1C3=O)OCO2 [G103, 6-(3-(Isopropylamino)propyl)-2,3-dimethoxy-5H-[1,3]dioxolo [4″,5″:5′,6′]pyrido[3′,2′:4,5]cyclopenta[1,2-c]isoquinoline-5,12(6H)-dione] | 70 | 31 | 89 | 206 | 153 | 57 | 202 | 55 |  | 6.78 | 602 | 328 | 55 | 126 | 150 | 53 | 644 | 234 | > 2000 | 182 | GI50 ([20]; Homo sapiens): 432 nM; GI50 ([21]; Homo sapiens): 19 nM; GI50 ([22]; Homo sapiens, AMO1): 317 nM; % Stability at 6 hrs [24]: 94.96%
